Test results from patent US20100099561A1, “HETEROBICYCLIC ALKYLTHIO-BRIDGED ISOXAZOLINES” (E.I. DU PONT DE NEMOURS AND COMPANY, priority 2008, published 2010).

How the values were obtained:
Format in all cases: in vivo
[1] = test system: barnyardgrass (Echinochloa crus-galli); assay: Test A postemergence, barnyardgrass; settings: 0 to 100 scale (0 no effect, 100 complete control)
Method in brief: (§1)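 Ratings of 0–100 (0 no effect, 100 complete control) came from visual comparison with untreated controls after roughly ten days in a greenhouse. Plants in loam soil–sand blend were treated with compound in non-phytotoxic solvent plus surfactant, pre- or postemergence (one- to two-leaf stage).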

[2] = test system: velvetleaf (Abutilon theophrasti); assay: Test A postemergence, velvetleaf; settings: 0 to 100 scale (0 no effect, 100 complete control)
Method in brief: as §1

[3] = test system: morningglory (Ipomoea coccinea); assay: Test B preemergence, morningglory; settings: scale 0 to 100
Text: (§2) Seeds of plant species selected from blackgrass (Alopecurus myosuroides), downy bromegrass (Bromus tectorum), green foxtail (Setaria viridis), Italian ryegrass (Lolium multiflorum), wheat (Triticum aestivum), wild oat (Avena fatua), catchweed bedstraw (Galium aparine), bermudagrass (Cynodon dactylon), Surinam grass (Brachiaria decumbens), cocklebur (Xanthium strumarium), corn (Zea mays), large crabgrass (Digitaria sanguinalis), woolly cupgrass (Eriochloa villosa), giant foxtail (Setaria faberii), goosegrass (Eleusine indica), johnsongrass (Sorghum halepense), kochia (Kochia scoparia), lambsquarters (Chenopodium album), morningglory (Ipomoea coccinea), nightshade (eastern black nightshade, Solanum ptycanthum), yellow nutsedge (Cyperus esculentus), pigweed (Amaranthus retroflexus), ragweed (common ragweed, Ambrosia elatior), soybean (Glycine max), sunflower (common oilseed sunflower, Helianthus annuus), Russian thistle (Salsola kali), and velvetleaf (Abutilon theophrasti) were planted into a blend of loam soil and sand and treated preemergence with test compounds formulated in a non-phytotoxic solvent mixture which included a surfactant. Treated plants and controls were maintained in a greenhouse for 13 to 15 days, after which time all species were compared to controls and visually evaluated. Plant response ratings, summarized in Table B, are based on a scale of 0 to 100 where 0 is no effect and 100 is complete control. A dash (-) response means no test result.

[4] = test system: yellow nutsedge (Cyperus esculentus); assay: Test B preemergence, yellow nutsedge; settings: scale 0 to 100
Text: as §2

[5] = test system: pigweed (Amaranthus retroflexus); assay: Test A postemergence, pigweed; settings: 0 to 100 scale (0 no effect, 100 complete control)
Method in brief: as §1

[6] = test system: downy bromegrass (Bromus tectorum); assay: Test B preemergence, downy bromegrass; settings: scale 0 to 100
Text: as §2

[7] = test system: large crabgrass (Digitaria sanguinalis); assay: Test A postemergence, large crabgrass; settings: 0 to 100 scale (0 no effect, 100 complete control)
Method in brief: as §1

[8] = test system: corn (Zea mays); assay: Test A preemergence, corn; settings: 0 to 100 scale (0 no effect, 100 complete control)
Method in brief: as §1

[9] = test system: large crabgrass (Digitaria sanguinalis); assay: Test B preemergence, large crabgrass; settings: scale 0 to 100
Text: as §2

[10] = test system: blackgrass (Alopecurus myosuroides); assay: Test B preemergence, blackgrass; settings: scale 0 to 100
Text: as §2

[11] = test system: velvetleaf (Abutilon theophrasti); assay: Test B preemergence, velvetleaf; settings: Preemergence, scale 0 to 100
Text: as §2

[12] = test system: giant foxtail (Setaria faberi); assay: Test A postemergence, giant foxtail; settings: 0 to 100 scale (0 no effect, 100 complete control)
Method in brief: as §1

[13] = test system: large crabgrass (Digitaria sanguinalis); assay: Test A preemergence, large crabgrass; settings: 0 to 100 scale (0 no effect, 100 complete control)
Method in brief: as §1

[14] = test system: lambsquarters (Chenopodium album); assay: Test B preemergence, lambsquarters; settings: scale 0 to 100
Text: as §2

[15] = test system: wheat (Triticum aestivum); assay: Test A postemergence, wheat; settings: 0 to 100 scale (0 no effect, 100 complete control)
Method in brief: as §1

[16] = test system: nightshade (eastern black nightshade, Solanum ptycanthum); assay: Test B preemergence, nightshade; settings: scale 0 to 100
Text: as §2

[17] = test system: corn (Zea mays); assay: Test B preemergence, corn; settings: scale 0 to 100
Text: as §2

[18] = test system: wheat (Triticum aestivum); assay: Test A preemergence, wheat; settings: 0 to 100 scale (0 no effect, 100 complete control)
Method in brief: as §1

[19] = test system: soybean (Glycine max); assay: Test B preemergence, soybean; settings: Preemergence, scale 0 to 100
Text: as §2

[20] = test system: rice (Oryza sativa); assay: Test B flooded paddy test, rice; settings: Flood, scale 0 to 100
Method in brief: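 Rice, umbrella sedge, ducksalad and barnyardgrass at 2-leaf stage; pots flooded to 3 cm, compounds applied into paddy water, depth held throughout. Greenhouse 13 to 15 days, then visual rating vs untreated controls on 0–100 scale (0 no effect, 100 complete control); dash means no test result.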

SMILES: CC1(C)CC(S(=O)(=O)Cc2c(C(F)(F)F)nc3n(c2=O)CCO3)=NO1 [Compound 2, 6-[[(4,5-dihydro-5,5-dimethyl-3-isoxazolyl)sulfonyl]methyl]-2,3-dihydro-7-(trifluoromethyl)-5H-oxazolo[3,2-α]pyrimidin-5-one]
- Plant response rating, Barnyardgrass ([1]; 125 g ai/ha): 70
- Plant response rating, Barnyardgrass ([1]; 500 g ai/ha): 80
- Plant response rating, Velvetleaf ([2]; 125 g ai/ha): 30
- Plant response rating, Velvetleaf ([2]; 500 g ai/ha): 60
- Plant response rating, Morningglory ([3]; 8 g ai/ha): 0
- Plant response rating, Morningglory ([3]; 16 g ai/ha): 0
- Plant response rating, Morningglory ([3]; 31 g ai/ha): 0
- Plant response rating, Morningglory ([3]; 62 g ai/ha): 0
- Plant response rating, Nutsedge, Yellow ([4]; 8 g ai/ha): 0
- Plant response rating, Nutsedge, Yellow ([4]; 16 g ai/ha): 0
- Plant response rating, Nutsedge, Yellow ([4]; 31 g ai/ha): 0
- Plant response rating, Nutsedge, Yellow ([4]; 62 g ai/ha): 0
- Plant response rating, Pigweed ([5]; 125 g ai/ha): 20
- Plant response rating, Pigweed ([5]; 500 g ai/ha): 60
- Plant response rating, Bromegrass, Downy ([6]; 8 g ai/ha): 0
- Plant response rating, Bromegrass, Downy ([6]; 16 g ai/ha): 0
- Plant response rating, Bromegrass, Downy ([6]; 31 g ai/ha): 0
- Plant response rating, Bromegrass, Downy ([6]; 62 g ai/ha): 0
- Plant response rating, Crabgrass, Large ([7]; 125 g ai/ha): 60
- Plant response rating, Crabgrass, Large ([7]; 500 g ai/ha): 90
- Plant response rating, Corn ([8]; 125 g ai/ha): 0
- Plant response rating, Corn ([8]; 500 g ai/ha): 50
- Plant response rating, Crabgrass, Large ([9]; 8 g ai/ha): 0
- Plant response rating, Crabgrass, Large ([9]; 16 g ai/ha): 65
- Plant response rating, Crabgrass, Large ([9]; 31 g ai/ha): 80
- Plant response rating, Crabgrass, Large ([9]; 62 g ai/ha): 90
- Plant response rating, Blackgrass ([10]; 8 g ai/ha): 0
- Plant response rating, Blackgrass ([10]; 16 g ai/ha): 0
- Plant response rating, Blackgrass ([10]; 31 g ai/ha): 0
- Plant response rating, Blackgrass ([10]; 62 g ai/ha): 50
- Plant response rating, Velvetleaf ([11]; 16 g ai/ha): 0
- Plant response rating, Velvetleaf ([11]; 31 g ai/ha): 0
- Plant response rating, Velvetleaf ([11]; 62 g ai/ha): 0
- Plant response rating, Foxtail, Giant ([12]; 125 g ai/ha): 50
- Plant response rating, Foxtail, Giant ([12]; 500 g ai/ha): 80
- Plant response rating, Crabgrass, Large ([13]; 125 g ai/ha): 90
- Plant response rating, Crabgrass, Large ([13]; 500 g ai/ha): 100
- Plant response rating, Lambsquarters ([14]; 8 g ai/ha): 0
- Plant response rating, Lambsquarters ([14]; 31 g ai/ha): 0
- Plant response rating, Lambsquarters ([14]; 62 g ai/ha): 0
- Plant response rating, Wheat ([15]; 125 g ai/ha): 0
- Plant response rating, Wheat ([15]; 500 g ai/ha): 60
- Plant response rating, Nightshade ([16]; 8 g ai/ha): 0
- Plant response rating, Nightshade ([16]; 16 g ai/ha): 0
- Plant response rating, Nightshade ([16]; 31 g ai/ha): 0
- Plant response rating, Nightshade ([16]; 62 g ai/ha): 0
- Plant response rating, Corn ([17]; 8 g ai/ha): 0
- Plant response rating, Corn ([17]; 16 g ai/ha): 0
- Plant response rating, Corn ([17]; 31 g ai/ha): 0
- Plant response rating, Corn ([17]; 62 g ai/ha): 20
- Plant response rating, Wheat ([18]; 125 g ai/ha): 10
- Plant response rating, Wheat ([18]; 500 g ai/ha): 60
- Plant response rating, Soybean ([19]; 31 g ai/ha): 0
- Plant response rating, Soybean ([19]; 62 g ai/ha): 0
- Plant response rating, Rice ([20]; 62 g ai/ha): 0
- Plant response rating, Rice ([20]; 250 g ai/ha): 0

SMILES: CC1(C)CC(S(=O)(=O)Cc2c(C(F)(F)F)nc3n(c2=O)CCS3)=NO1 [Compound 6]
- Plant response rating, Barnyardgrass ([1]; 125 g ai/ha): 70
- Plant response rating, Barnyardgrass ([1]; 500 g ai/ha): 80
- Plant response rating, Velvetleaf ([2]; 125 g ai/ha): 60
- Plant response rating, Velvetleaf ([2]; 500 g ai/ha): 80
- Plant response rating, Morningglory ([3]; 16 g ai/ha): 0
- Plant response rating, Morningglory ([3]; 31 g ai/ha): 0
- Plant response rating, Morningglory ([3]; 62 g ai/ha): 0
- Plant response rating, Morningglory ([3]; 125 g ai/ha): 0
- Plant response rating, Nutsedge, Yellow ([4]; 16 g ai/ha): 0
- Plant response rating, Nutsedge, Yellow ([4]; 31 g ai/ha): 0
- Plant response rating, Nutsedge, Yellow ([4]; 62 g ai/ha): 0
- Plant response rating, Nutsedge, Yellow ([4]; 125 g ai/ha): 45
- Plant response rating, Pigweed ([5]; 125 g ai/ha): 50
- Plant response rating, Pigweed ([5]; 500 g ai/ha): 90
- Plant response rating, Bromegrass, Downy ([6]; 16 g ai/ha): 0
- Plant response rating, Bromegrass, Downy ([6]; 31 g ai/ha): 20
- Plant response rating, Bromegrass, Downy ([6]; 62 g ai/ha): 20
- Plant response rating, Bromegrass, Downy ([6]; 125 g ai/ha): 50
- Plant response rating, Crabgrass, Large ([7]; 125 g ai/ha): 80
- Plant response rating, Crabgrass, Large ([7]; 500 g ai/ha): 90
- Plant response rating, Corn ([8]; 125 g ai/ha): 0
- Plant response rating, Corn ([8]; 500 g ai/ha): 0
- Plant response rating, Crabgrass, Large ([9]; 16 g ai/ha): 95
- Plant response rating, Crabgrass, Large ([9]; 31 g ai/ha): 100
- Plant response rating, Crabgrass, Large ([9]; 62 g ai/ha): 100
- Plant response rating, Crabgrass, Large ([9]; 125 g ai/ha): 100
- Plant response rating, Blackgrass ([10]; 16 g ai/ha): 50
- Plant response rating, Blackgrass ([10]; 31 g ai/ha): 80
- Plant response rating, Blackgrass ([10]; 62 g ai/ha): 95
- Plant response rating, Blackgrass ([10]; 125 g ai/ha): 95
- Plant response rating, Velvetleaf ([11]; 16 g ai/ha): 0
- Plant response rating, Velvetleaf ([11]; 31 g ai/ha): 0
- Plant response rating, Velvetleaf ([11]; 62 g ai/ha): 0
- Plant response rating, Velvetleaf ([11]; 125 g ai/ha): 0
- Plant response rating, Foxtail, Giant ([12]; 125 g ai/ha): 80
- Plant response rating, Foxtail, Giant ([12]; 500 g ai/ha): 90
- Plant response rating, Crabgrass, Large ([13]; 125 g ai/ha): 80
- Plant response rating, Crabgrass, Large ([13]; 500 g ai/ha): 100
- Plant response rating, Lambsquarters ([14]; 16 g ai/ha): 0
- Plant response rating, Lambsquarters ([14]; 31 g ai/ha): 20
- Plant response rating, Lambsquarters ([14]; 62 g ai/ha): 90
- Plant response rating, Lambsquarters ([14]; 125 g ai/ha): 95
- Plant response rating, Wheat ([15]; 125 g ai/ha): 20
- Plant response rating, Wheat ([15]; 500 g ai/ha): 30
- Plant response rating, Nightshade ([16]; 16 g ai/ha): 0
- Plant response rating, Nightshade ([16]; 31 g ai/ha): 45
- Plant response rating, Nightshade ([16]; 62 g ai/ha): 95
- Plant response rating, Nightshade ([16]; 125 g ai/ha): 98
- Plant response rating, Corn ([17]; 16 g ai/ha): 0
- Plant response rating, Corn ([17]; 31 g ai/ha): 0
- Plant response rating, Corn ([17]; 62 g ai/ha): 0
- Plant response rating, Corn ([17]; 125 g ai/ha): 0
- Plant response rating, Wheat ([18]; 125 g ai/ha): 0
- Plant response rating, Wheat ([18]; 500 g ai/ha): 0
- Plant response rating, Soybean ([19]; 16 g ai/ha): 0
- Plant response rating, Soybean ([19]; 31 g ai/ha): 0
- Plant response rating, Soybean ([19]; 62 g ai/ha): 0
- Plant response rating, Soybean ([19]; 125 g ai/ha): 0
- Plant response rating, Rice ([20]; 62 g ai/ha): 20
- Plant response rating, Rice ([20]; 250 g ai/ha): 20
